Patent publication US7723523B2, “Tetrahydropyridothiophenes” (4SC AG, priority 2004, dated 2010)

How the values were obtained:
[1] = system: RKO colon adenocarcinoma cells (RKOp27) arrested by expression of ectopic p27Kip1; experiment: Alamar Blue cell viability assay on RKOp27 cells arrested by Ponasterone A-induced p27Kip1 (cell cycle specific mode of action); type: cell-based; conditions: Homo sapiens, RKOp27, 72 h, cells arrested by p27Kip1 induced with 10 μM Ponasterone A, 72 hours incubation, read-out: IC50 RKO p27 arrested
Summary of the method: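 Viability measured by Alamar Blue fluorescence (ex 544, em 590 nm) after 72 h, 37 °C compound exposure in quadruplicate, normalized to untreated cells as 100%. Cells were p27Kip1-arrested RKOp27, induced with 10 μM Ponasterone A at seeding; compound added 24 h later.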

[2] = system: RKO (RKOp27) human colon adenocarcinoma cells; experiment: Alamar Blue cell viability assay, anti-proliferative/cytotoxic activity on proliferating RKOp27 cells; type: cell-based; conditions: absence of Ponasterone A, 72 hours incubation, read-out: IC50 RKO p27 proliferating
Summary of the method: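 IC50 values come from concentration-effect curves of Alamar Blue fluorescence (544/590 nm), relative to untreated controls set at 100%. Cells were RKOp27, seeded at 4000/well in DMEM with 10% FCS and exposed from 24 h post-seeding for 72 h (37 °C, 5% CO2) to semi-log dilutions, each run in quadruplicate.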

| SMILES | IC50 [1] [µM] | IC50 [2] [nM] |
| --- | --- | --- |
| N#Cc1c(NC(=O)/C=C/c2ccccc2Cl)sc2c1CCN(C(=O)Cc1ccccn1)C2 [Example 212, (E)-3-(2-Chloro-phenyl)-N-[3-cyano-6-(2-pyridin-2-yl-ethanoyl)-4,5,6,7-tetrahydro-thieno[2,3-c]pyridin-2-yl]-acrylamide] | ≥ 100 | ≤ 2000 |
| N#Cc1c(NC(=O)/C=C/c2ccccc2Cl)sc2c1CCN(C(=O)Cc1ccncc1)C2 [Example 214, (E)-3-(2-Chloro-phenyl)-N-[3-cyano-6-(2-pyridin-4-yl-ethanoyl)-4,5,6,7-tetrahydro-thieno[2,3-c]pyridin-2-yl]-acrylamide] | ≥ 100 | ≤ 2000 |
| N#Cc1c(NC(=O)/C=C/c2ccccc2Cl)sc2c1CCN(C(=O)CCc1cccnc1)C2 [Example 215, (E)-3-(2-Chloro-phenyl)-N-[3-cyano-6-(3-pyridin-3-yl-propanoyl)-4,5,6,7-tetrahydro-thieno[2,3-c]pyridin-2-yl]-acrylamide] | ≥ 100 | ≤ 2000 |
| CCOc1ccccc1/C=C/C(=O)Nc1sc2c(c1C#N)CCN(C(=O)CCOC)C2 [Example 216, (E)-N-[3-Cyano-6-(3-methoxy-propanoyl)-4,5,6,7-tetrahydro-thieno[2,3-c]pyridin-2-yl]-3-(2-ethoxy-phenyl)-acrylamide] | ≥ 100 | ≤ 2000 |
| CCOc1ccccc1/C=C/C(=O)Nc1sc2c(c1C#N)CCN(C(=O)COCCOC)C2 [Example 217, (E)-N-{3-Cyano-6-[2-(2-methoxy-ethoxy)-ethanoyl]-4,5,6,7-tetrahydro-thieno[2,3-c]pyridin-2-yl}-3-(2-ethoxy-phenyl)-acrylamide] | ≥ 100 | ≤ 2000 |
| CCOc1ccccc1/C=C/C(=O)Nc1sc2c(c1C#N)CCN(C(=O)Cc1ccccn1)C2 [Example 218, (E)-N-[3-Cyano-6-(2-pyridin-2-yl-ethanoyl)-4,5,6,7-tetrahydro-thieno[2,3-c]pyridin-2-yl]-3-(2-ethoxy-phenyl)-acrylamide] | ≥ 100 | ≤ 2000 |
| CCOc1ccccc1/C=C/C(=O)Nc1sc2c(c1C#N)CCN(C(=O)Cc1cccnc1)C2 [Example 219, (E)-N-[3-Cyano-6-(2-pyridin-3-yl-ethanoyl)-4,5,6,7-tetrahydro-thieno[2,3-c]pyridin-2-yl]-3-(2-ethoxy-phenyl)-acrylamide] | ≥ 100 | ≤ 2000 |
| CCOc1ccccc1/C=C/C(=O)Nc1sc2c(c1C#N)CCN(C(=O)CCc1cccnc1)C2 [Example 220, (E)-N-[3-Cyano-6-(3-pyridin-3-yl-propanoyl)-4,5,6,7-tetrahydro-thieno[2,3-c]pyridin-2-yl]-3-(2-ethoxy-phenyl)-acrylamide] | ≥ 50 | ≤ 500 |
| CCOc1ccccc1/C=C/C(=O)Nc1sc2c(c1C#N)CCN(C(=O)CCc1ccccc1)C2 [Example 221, (E)-N-[3-Cyano-6-(3-phenyl-propanoyl)-4,5,6,7-tetrahydro-thieno[2,3-c]pyridin-2-yl]-3-(2-ethoxy-phenyl)-acrylamide] | ≥ 100 | ≤ 2000 |
| CCOc1ccccc1/C=C/C(=O)Nc1sc2c(c1C#N)CCN(C(=O)CCc1ccccn1)C2 [Example 222, (E)-N-[3-Cyano-6-(3-pyridin-2-yl-propanoyl)-4,5,6,7-tetrahydro-thieno[2,3-c]pyridin-2-yl]-3-(2-ethoxy-phenyl)-acrylamide] | ≥ 50 | ≤ 500 |
| CCOc1ccccc1/C=C/C(=O)Nc1sc2c(c1C#N)CCN(C(=O)COC)C2 [Example 223, (E)-N-[3-Cyano-6-(2-methoxy-ethanoyl)-4,5,6,7-tetrahydro-thieno[2,3-c]pyridin-2-yl]-3-(2-ethoxy-phenyl)-acrylamide] | ≥ 100 | ≤ 2000 |
| CCOc1ccccc1/C=C/C(=O)Nc1sc2c(c1C#N)CCN(C(=O)CCn1ccnc1)C2 [Example 224, (E)-N-[3-Cyano-6-(3-imidazol-1-yl-propanoyl)-4,5,6,7-tetrahydro-thieno[2,3-c]pyridin-2-yl]-3-(2-ethoxy-phenyl)-acrylamide] | ≥ 100 | ≤ 2000 |
| COCCOCC(=O)N1CCc2c(sc(NC(=O)/C=C/c3ccco3)c2C#N)C1 [Example 226, (E)-N-{3-Cyano-6-[2-(2-methoxy-ethoxy)ethanoyl]-4,5,6,7-tetrahydro-thieno[2,3-c]pyridin-2-yl}-3-furan-2-yl-acrylamide] | ≥ 100 | ≤ 2000 |
| N#Cc1c(NC(=O)/C=C/c2ccco2)sc2c1CCN(C(=O)Cc1ccccn1)C2 [Example 227, (E)-N-[3-Cyano-6-(2-pyridin-2-yl-ethanoyl)-4,5,6,7-tetrahydro-thieno[2,3-c]pyridin-2-yl]-3-furan-2-yl-acrylamide] | ≥ 100 | ≤ 2000 |
| N#Cc1c(NC(=O)/C=C/c2ccco2)sc2c1CCN(C(=O)Cc1cccnc1)C2 [Example 228, (E)-N-[3-Cyano-6-(2-pyridin-3-yl-ethanoyl)-4,5,6,7-tetrahydro-thieno[2,3-c]pyridin-2-yl]-3-furan-2-yl-acrylamide] | ≥ 100 | ≤ 2000 |
| N#Cc1c(NC(=O)/C=C/c2ccco2)sc2c1CCN(C(=O)CCc1cccnc1)C2 [Example 229, (E)-N-[3-Cyano-6-(3-pyridin-3-yl-propanoyl)-4,5,6,7-tetrahydro-thieno[2,3-c]pyridin-2-yl]-3-furan-2-yl-acrylamide] | ≥ 100 | ≤ 2000 |
| CCOC(=O)N1CCc2c(sc(NC(=O)/C=C/c3cccc4c3OC(F)(F)O4)c2C#N)C1 [Example 230, 3-Cyano-2-[(E)-3-(2,2-difluoro-benzo[1,3]dioxol-4-yl)-allanoylamino]-4,7-dihydro-5H-thieno[2,3-c]pyridine-6-carboxylic acid ethyl ester] | ≥ 100 | ≤ 2000 |
| CCOC(=O)N1CCc2c(sc(NC(=O)/C=C/c3ccccc3OC(F)F)c2C#N)C1 [Example 231, 3-Cyano-2{(E), 3-[2-(1,1-difluoro-methoxy)-phenyl]-allanoylamino}-4,7-dihydro-5H-thieno[2,3-c]pyridine-6-carboxylic acid ethyl ester] | ≥ 100 | ≤ 2000 |
| CCOC(=O)N1CCc2c(sc(NC(=O)/C=C/c3ccc4c(c3Br)OCO4)c2C#N)C1 [Example 232, 2-[(E)-3-(4-Bromo-benzo[1,3]dioxol-5-yl)-allanoylamino]-3-cyano-4,7-dihydro-5H-thieno[2,3-c]pyridine-6-carboxylic acid ethyl ester] | ≥ 100 | ≤ 2000 |
| CCOC(=O)N1CCc2c(sc(NC(=O)/C=C/c3ccccc3OC(F)(F)F)c2C#N)C1 [Example 233, 3-Cyano-2-[(E)-3-(2-trifluoromethoxy-phenyl)-allanoylamino]-4,7-dihydro-5H-thieno[2,3-c]pyridine-6-carboxylic acid ethyl ester] | ≥ 50 | ≤ 500 |
| CCOC(=O)N1CCc2c(sc(NC(=O)/C=C/c3cccc4c3OCC4)c2C#N)C1 [Example 234, 3-Cyano-2-((E)-3-2,3-dihydro-benzofuran-7-yl-allanoylamino)-4,7-dihydro-5H-thieno[2,3-c]pyridine-6-carboxylic acid ethyl ester] | ≥ 100 | ≤ 2000 |
| CCOc1ccccc1/C=C/C(=O)Nc1sc2c(c1C#N)CCN(C(=O)OCCOC)C2 [Example 235, 3-Cyano-2-[(E)-3-(2-ethoxy-phenyl)-allanoylamino]-4,7-dihydro-5H-thieno[2,3-c]pyridine-6-carboxylic acid 2-methoxy-ethyl ester] | ≥ 100 | ≤ 2000 |
| CCOc1ccccc1/C=C/C(=O)Nc1sc2c(c1C#N)CCN(C(=O)OCc1ccccn1)C2 [Example 236, 3-Cyano-2-[(E)-3-(2-ethoxy-phenyl)-allanoylamino]-4,7-dihydro-5H-thieno[2,3-c]pyridin-6-carboxylic acid pyridin-2-ylmethyl ester] | ≥ 100 | ≤ 2000 |
| CCOc1ccccc1/C=C/C(=O)Nc1sc2c(c1C#N)CCN(C(=O)OCc1cccnc1)C2 [Example 237, 3-Cyano-2-[(E)-3-(2-ethoxy-phenyl)-allanoylamino]-4,7-dihydro-5H-thieno[2,3-c]pyridine-6-carboxylic acid pyridin-3-ylmethyl ester] | ≥ 100 | ≤ 2000 |
| CCOc1ccccc1/C=C/C(=O)Nc1sc2c(c1C#N)CCN(C(=O)OCc1ccncc1)C2 [Example 238, 3-Cyano-2-[(E)-3-(2-ethoxy-phenyl)-allanoylamino]-4,7-dihydro-5H-thieno[2,3-c]pyridine-6-carboxylic acid pyridin-4-ylmethyl ester] | ≥ 100 | ≤ 2000 |
| CCOc1ccccc1/C=C/C(=O)Nc1sc2c(c1C#N)CCN(C(=O)OCCc1ccccn1)C2 [Example 239, 3-Cyano-2-[(E)-3-(2-ethoxy-phenyl)-allanoylamino]-4,7-dihydro-5H-thieno[2,3-c]pyridine-6-carboxylic acid 2-pyridin-2-yl-ethyl ester] | ≥ 100 | ≤ 2000 |
| COCCOC(=O)N1CCc2c(sc(NC(=O)/C=C/c3ccco3)c2C#N)C1 [Example 240, 3-Cyano-2-((E)-3-furan-2-yl-allanoylamino)-4,7-dihydro-5H-thieno[2,3-c]pyridine-6-carboxylic acid 2-methoxy-ethyl ester] | ≥ 100 | ≤ 2000 |
| N#Cc1c(NC(=O)/C=C/c2ccco2)sc2c1CCN(C(=O)OCc1ccccn1)C2 [Example 241, 3-Cyano-2-((E)-3-furan-2-yl-allanoylamino)-4,7-dihydro-5H-thieno[2,3-c]pyridine-6-carboxylic acid pyridin-2-ylmethyl ester] | ≥ 100 | ≤ 2000 |
